From PubChem BioAssay (NCI)
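Tested at 5 concentrations; 48 h exposure; 96-well plates; endpoints linearly interpolated, else capped at highest concentration. GI50 marks 50% less growth. TGI is the concentration that stops growth completely.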

Assays:
Assay in all cases: DTP human tumour cell line panel, 48 h
[1] = system: KM12 colon
[2] = system: 786-0 renal
[3] = system: CAKI-1 renal
[4] = system: SW-620 colon
[5] = system: HCT-15 colon
[6] = system: HOP-92 NSCLC
[7] = system: HL-60(TB) leukemia
[8] = system: U251 CNS
[9] = system: NCI-H226 lung
[10] = system: UACC-62 melanoma

CN[C@@H](C)C(=O)N[C@H]1CN(S(=O)(=O)c2cccc(S(=O)(=O)N3CC[C@H]4CC[C@@H](C(=O)NC(c5ccccc5)c5ccccc5)N4C(=O)[C@@H](NC(=O)[C@H](C)NC)C3)c2)CC[C@H]2CC[C@@H](C(=O)NC(c3ccccc3)c3ccccc3)N2C1=O
GI50 [1]: 16.7 µM
TGI [1]: 34.3 µM
GI50 [2]: 20 µM
TGI [2]: 43.8 µM
GI50 [3]: 58.4 µM
TGI [3]: > 100 µM
GI50 [4]: 31.7 µM
TGI [4]: > 100 µM
GI50 [5]: > 93.6 µM
TGI [5]: > 100 µM
GI50 [6]: 7.71 µM
TGI [6]: 27.4 µM
GI50 [7]: 0.0317 µM
TGI [7]: 1.69 µM
GI50 [8]: 24.4 µM
TGI [8]: 63.8 µM
GI50 [9]: 28.9 µM
TGI [9]: > 100 µM
GI50 [10]: 18 µM
TGI [10]: 38.9 µM

COc1ccc(OC)c(NCC(=O)n2nc(/C=C\c3ccc(O)c(OC)c3)cc2/C=C\c2ccc(O)c(OC)c2)c1
GI50 [1]: 1.81 µM
TGI [1]: 4.92 µM
GI50 [2]: 2.1 µM
TGI [2]: 7.97 µM
GI50 [4]: 2.03 µM
TGI [4]: 5.48 µM
GI50 [5]: 2.09 µM
TGI [5]: 11.8 µM
GI50 [6]: 4.76 µM
TGI [6]: 53.8 µM
GI50 [7]: 0.989 µM
TGI [7]: 5.05 µM
GI50 [8]: 2.36 µM
TGI [8]: 12 µM
GI50 [9]: 3.16 µM
TGI [9]: 16.1 µM
GI50 [10]: 1.56 µM
TGI [10]: 4.72 µM

CC(=O)ON1CCCC(P(=O)(OCOC(=O)C(C)(C)C)OCOC(=O)C(C)(C)C)C1=O (stereo not given)
GI50 [1]: 0.51 µM
TGI [1]: 2.54 µM
GI50 [2]: 0.331 µM
TGI [2]: > 23.4 µM
GI50 [3]: 0.712 µM
TGI [3]: 20.4 µM
GI50 [4]: 1.26 µM
TGI [4]: 20.8 µM
GI50 [5]: 0.534 µM
TGI [5]: 6.71 µM
GI50 [6]: 0.187 µM
TGI [6]: 1.82 µM
GI50 [7]: 0.653 µM
TGI [7]: 2.87 µM
GI50 [8]: 0.458 µM
TGI [8]: 5.58 µM
GI50 [9]: 0.949 µM
TGI [9]: 7.2 µM
GI50 [10]: 0.405 µM
TGI [10]: 1.74 µM

Cc1nc2ccccc2nc1CC(=O)C(=O)Nc1ccc(Cl)cc1Cl
TGI [1]: > 100 µM
TGI [2]: > 100 µM
TGI [3]: > 100 µM
TGI [4]: > 100 µM
TGI [5]: > 100 µM
TGI [6]: > 100 µM
TGI [7]: > 100 µM
TGI [8]: > 100 µM
TGI [10]: > 100 µM

CC(Br)C(=O)NC(CO)C(=O)O (stereo not given)
TGI [1]: > 100 µM
TGI [2]: > 100 µM
TGI [3]: > 100 µM
TGI [4]: > 100 µM
TGI [5]: > 100 µM
TGI [6]: > 100 µM
TGI [7]: > 100 µM
TGI [8]: > 100 µM
TGI [9]: > 100 µM
TGI [10]: > 100 µM

Cc1ccc(O)cc1Nc1ccnc2ccc(S(C)(=O)=O)cc12
GI50 [1]: > 25 µM
TGI [1]: > 25 µM
GI50 [2]: 1.87 µM
TGI [2]: > 25 µM
GI50 [3]: 0.74 µM
TGI [3]: 5.12 µM
GI50 [4]: 15.2 µM
TGI [4]: > 25 µM
GI50 [5]: 11.4 µM
TGI [5]: > 25 µM
GI50 [6]: 0.0327 µM
TGI [6]: 0.245 µM
GI50 [7]: 10.2 µM
TGI [7]: > 25 µM
GI50 [8]: 5.22 µM
TGI [8]: > 25 µM
GI50 [9]: 5.05 µM
TGI [9]: > 23.6 µM
GI50 [10]: 0.843 µM
TGI [10]: 10.4 µM

COc1cc2c(cc1Nc1nc(N3CCc4ccccc43)c3cc[nH]c3n1)N(C(=O)CN(C)C)CC2
GI50 [1]: 1.49 µM
TGI [1]: 2.81 µM
GI50 [2]: 3 µM
TGI [2]: 8.99 µM
GI50 [3]: 11 µM
TGI [3]: 16.3 µM
GI50 [4]: 0.35 µM
TGI [4]: 0.8 µM
GI50 [5]: 1.25 µM
TGI [5]: 2.81 µM
GI50 [7]: 1.18 µM
TGI [7]: 6.82 µM
GI50 [8]: 4.67 µM
TGI [8]: 9.83 µM
GI50 [9]: 11.3 µM
TGI [9]: 20.1 µM
GI50 [10]: 4.71 µM
TGI [10]: 9.08 µM

Cc1c(C(=N)C(C#N)C#N)c(=N)oc2c1ccc1ccccc12
GI50 [1]: 26.2 µM
TGI [1]: > 100 µM
GI50 [2]: 29.1 µM
TGI [2]: > 100 µM
GI50 [3]: 7.51 µM
TGI [3]: > 100 µM
GI50 [4]: 18.4 µM
TGI [4]: 56.1 µM
GI50 [5]: 13.4 µM
TGI [5]: 72.5 µM
GI50 [7]: 8.76 µM
TGI [7]: 85.8 µM
GI50 [8]: 14.5 µM
TGI [8]: 37.2 µM
GI50 [10]: 13 µM
TGI [10]: 32.3 µM

COc1cc(Nc2cnc3ccc(C(F)(F)F)cc3n2)cc(OC)c1OC
TGI [2]: > 100 µM
TGI [4]: > 100 µM
TGI [5]: > 100 µM
TGI [6]: > 100 µM
TGI [7]: > 100 µM
TGI [8]: > 100 µM
TGI [9]: > 100 µM

CCN(C)c1nc(N(C)CC)c2nc(N(C)CC)nc(N(C)CC)c2n1
TGI [1]: > 100 µM
TGI [2]: > 100 µM
TGI [3]: > 100 µM
TGI [4]: > 100 µM
TGI [5]: > 100 µM
TGI [6]: > 100 µM
TGI [7]: > 100 µM
TGI [8]: > 100 µM
TGI [10]: > 100 µM

O=C1NC2=C(CCCCC/C2=N\O)C12CCCCCC2
TGI [1]: > 100 µM
TGI [2]: > 100 µM
TGI [3]: > 100 µM
TGI [4]: > 100 µM
TGI [5]: > 100 µM
TGI [6]: > 100 µM
TGI [7]: > 100 µM
TGI [8]: > 100 µM
TGI [10]: > 100 µM

COC(=O)C1C(C(=O)OC)C2C(=O)C3C(C(=O)OC)C(C(=O)OC)C3C(=O)C12 (stereo not given)
TGI [1]: > 100 µM
TGI [2]: > 100 µM
TGI [3]: > 100 µM
TGI [4]: > 100 µM
TGI [6]: > 100 µM
TGI [7]: > 100 µM
TGI [8]: > 100 µM
TGI [9]: > 100 µM

CSC1=Nc2c(c(C)c(C)n2COC(CO)CO)C2=NC(=O)CN12
GI50 [1]: > 100 µM
TGI [1]: > 100 µM
GI50 [2]: > 100 µM
TGI [2]: > 100 µM
GI50 [3]: > 100 µM
TGI [3]: > 100 µM
GI50 [4]: > 100 µM
TGI [4]: > 100 µM
GI50 [5]: > 100 µM
TGI [5]: > 100 µM
GI50 [6]: > 100 µM
TGI [6]: > 100 µM
GI50 [8]: > 100 µM
TGI [8]: > 100 µM
GI50 [9]: > 100 µM
TGI [9]: > 100 µM
GI50 [10]: > 100 µM
TGI [10]: > 100 µM

O=C(NC12CC3CCC1CC(C3)C2)[C@@H]1CCCN1C(=O)OCc1ccccc1 (stereo not given in full)
TGI [1]: > 100 µM
TGI [2]: > 100 µM
TGI [4]: > 100 µM
TGI [5]: > 100 µM
TGI [6]: 71.5 µM
TGI [7]: 73.3 µM
TGI [8]: > 100 µM
TGI [9]: > 100 µM
TGI [10]: > 100 µM

CC1(C)OC[C@@H]([C@@]2(CO[Si](c3ccccc3)(c3ccccc3)C(C)(C)C)CC=CC(=O)O2)O1
GI50 [1]: 4.99 µM
TGI [1]: 56.3 µM
GI50 [2]: 8.96 µM
TGI [2]: 32.8 µM
GI50 [3]: 25.9 µM
TGI [3]: > 100 µM
GI50 [4]: 4.55 µM
TGI [4]: 46.7 µM
GI50 [5]: 5.86 µM
TGI [5]: 58.6 µM
GI50 [6]: 6.72 µM
TGI [6]: 26.2 µM
GI50 [8]: 5.94 µM
TGI [8]: 25.4 µM
GI50 [9]: 5.54 µM
TGI [9]: 24.1 µM
GI50 [10]: 5.79 µM
TGI [10]: 84.5 µM

O=[N+]([O-])c1cccc(C2=NN(c3ccccc3)C3c4cc(Br)ccc4OCC23)c1 (stereo not given)
TGI [1]: > 100 µM
TGI [2]: > 100 µM
TGI [4]: > 100 µM
TGI [6]: > 100 µM
TGI [7]: > 100 µM
TGI [8]: > 100 µM
